Where two headings read alike, the source gives them in different places.
Assays:
Type in all cases: binding
FBW7^ARG+pCycE = biological target: T1, FBW7^ARG+pCycE (Homo sapiens, UniProt Q969H0, R505L); assay: FBW7^ARG-cyclin E agonist ALPHAscreen (primary PRUN, confirmation CRUN1, dose-response DRUN); details: for EC50 / Emax: DRUN dose-response; for Emax: relative to WT-FBW7+pCycE, read-out: FBW7 ACT Averaged Max % Response
T1 construct: GST (TEV site and flexible linker) (N, cleaved yes); made in house; host or cells: SF9 insect cells (baculovirus)
From the text: FBW7^ARG refers to a class of loss-of-function mutations of the of FBW7 ubiquitin ligase that target a key phosphate-binding arginine residue in the FBW7 substrate-binding domain. These mutations are commonly found in human cancers and promote tumorigenesis by impairing the interactions between FBW7 and its substrates, such as cyclin E and Myc. Described herein is a high throughput screen (HTS) to identify agonists, such as small molecules, that augment FBW7^ARG-substrate binding. In an embodiment, the HTS is based on the Amplified Luminescent Proximity Homogenous Assay (ALPHAscreen) because it detects protein-protein interactions with a large dynamic range. ALPHAscreen is a bead-based proximity assay wherein donor beads contain a photosensitizer, phthalocyanine, and acceptor beads contain thioxene, anthracene and rubrenein in sufficient quantities to generate a chemiluminescence/fluorescence reaction (FIG. 4A). Upon excitation with excitation illumination, such as light having a wavelength of 680 nm, of the donor beads, phthalocyanine converts ambient oxygen to singlet oxygen, which can diffuse approximately 200 nm within its 4-microsecond half-life. If an acceptor bead is in close proximity to an excited donor bead, singlet oxygen transfers its energy to the acceptor, resulting in emitted light at a broad bandwidth of −520-620 nm. The HTS-compatible FBW7/cyclin E ALPHAscreen assay described herein uses streptavidin coupled donor beads and Ni-chelate acceptor beads. In this assay, biotinylated cyclin E phosphopeptide and the His-tagged FBW7 mutant protein have high affinity for the donor and acceptor beads, respectively (FIG. 4B). A small molecule that is able to bridge the binding sites of the peptide and the mutant protein (or induce a conformational change that increases affinity of the protein for the peptide) will bring the donor and acceptor beads in close proximity to each other, resulting in an ALPHA signal. As designed, this assay format is a very sensitive, non-radioactive, homogenous “mix-and-read” format that is HT compatible in 384 and 1536 well formats.
In the 384-well screening assay, 10 uL of acceptor beads with 25 nM of the FBW7^ARG (RLFBW7) are dispensed to test wells; acceptor beads with 25 nM of the wt-FBW7 protein (WTFBW7) are dispensed to control wells. Test compounds are then added by pintool transfer and the mixture is incubated for 30 minutes. An additional 10 uL of donor beads with 25 nM cyclin E phosphopeptide is then added to all wells and the plate is incubated for 4 hours before the ALPHA signal is measured.
In preparation for large-scale screening, the assay was miniaturized to a 1536-well format. The miniaturized screen performed outstandingly in all respects. The screen was enhanced with respect to several parameters and assayed its performance using mutant FBW7 and wt-FBW7, as well as non-specific assay agonists. […] For example, the following Z′-scores/FBW7 concentrations were obtained: 6.25 nM/Z′=0.62, 12.5 nm/Z′=0.85, 25.0 nM/Z′=0.84.
1. Add 2.5 uL of RLFBW7/cycE˜P/Ni beads: Final [25 nM/25 nM/10 ug/ml].
2. Add 2.5 uL of WTFBW7/cycE˜P/Ni beads: Final [25 nM/25 nM/10 ug/ml].
4. Add 2.5 uL of SA beads to all wells Final [10 ug/ml],
5. Add 30 nL of compounds,
6. Read ALPHAscreen on Envision
The large-scale FBW7 agonist ALPHAscreen was completed using FBW7^ARG and a phosphorylated cyclin E (pCycE) degron peptide. Wt-FBW7+pCycE-peptide was the “high control”, and Wt-FBW7+unphosph. CycE peptide was the “low control”. The screen was performed on the 645,000-compound Scripps Diversity Library using 1536-well format and drug concentrations of 26.1 μM. An algorithm aided hit identification based on the average percent activation for all compounds and their standard deviation.
A confirmation assay of all 853 compounds in triplicate using a single concentration (26.1 μM). […]

FBW7^ARG (RLFBW7) alone = biological target: T2, FBW7^ARG (RLFBW7) alone (Homo sapiens, UniProt Q969H0, R505L); assay: Counterscreen 1 ALPHAscreen with FBW7^ARG alone (CSRUN1/DCSRUN1); details: dose-response counterscreen; for Emax: read-out: RLFBW7 ACT DCSRUN1 Averaged Max % Response
T2 construct: GST (TEV site and flexible linker) (N, cleaved yes); made in house; host or cells: SF9 insect cells (baculovirus)
Method: (§1) Studies in 384-well format were performed using the ENVISION system. Reagent concentrations (see FIG. 6A), order of addition, pH (see FIG. 6B), and reducing agent were altered with the goal of enhancing the dynamic range between wt-FBW7 (the positive control) and FBW7^ARG (FIG. 6 and not shown). Wt-FBW7 produced a signal 100× greater with phosphorylated cyclin E degron peptide compared with unphosphorylated, which represents the assay's maximum range (FIG. 6C). […] This assay thus detects the residual affinity of the FBW7^ARG-substrate interaction, which, as predicted, is stronger than wt-FBW7 protein with unphosphorylated cyclin E peptide. Concurrent with this primary assay, counter ALPHAscreens were developed which omitted either FBW7 or peptide (to eliminate hits that are general ALPHAscreen agonists), or used an irrelevant phosphopeptide (to eliminate compounds that simply augment binding to phosphopeptides). […]
(§2) The 77 hits were subjected to a dose-response assay in which each compound was tested in triplicate in a 10 point 3-fold dilutional series, to a maximum concentration of approximately 87 μM. Three screens were performed, using FBW7^ARG+pCycE (DRUN), FBW7^ARG (DCSRUN1), or pCycE alone (DCSRUN2). See TABLES 2, 3, and 4, respectively, and FIG. 10A. All of the assays performed extremely well, and threshold of 10% activation (relative to WT-FBW7+pCycE) was set as positive. […] Many hits fell into shared structure cluster ID groups, reinforcing the idea that they function as specific agonists (see below and TABLE 5).

pCycE alone = assay: Counterscreen 2 ALPHAscreen with cyclin E phosphopeptide alone (CSRUN2/DCSRUN2); details: for CyCEP ACT DCSRUN2 Averaged Max % Response: activation relative to WT-FBW7+pCycE, averaged maximum; for EC50: dose-response, triplicate, 10 point 3-fold dilutional series, read-out: CyCEP ACT DCSRUN2 Final EC50
Method: as §1, §2

[1] = raw curve fit, read-out: FBW7 ACT EC50 Curve Fit Raw, Molar
[2] = triplicate, 10 point 3-fold dilution, max approx. 87 μM, read-out: FBW7 ACT Final EC50, Molar
[3] = confirmation assay, triplicate, single concentration 26.1 μM, read-out: FBW7 ACT CRUN1 Avg % Response and Stdev
[4] = primary screen, 1536-well, 26.1 μM, FBW7^ARG + pCycE degron peptide, high control wt-FBW7+pCycE, read-out: FBW7 ACT PRUN % Response
[5] = raw curve fit, read-out: RLFBW7 ACT DCSRUN1 EC50 Curve Fit Raw
[6] = read-out: RLFBW7 ACT DCSRUN1 Final EC50

T1 sequence (Q969H0 64-707 R505L): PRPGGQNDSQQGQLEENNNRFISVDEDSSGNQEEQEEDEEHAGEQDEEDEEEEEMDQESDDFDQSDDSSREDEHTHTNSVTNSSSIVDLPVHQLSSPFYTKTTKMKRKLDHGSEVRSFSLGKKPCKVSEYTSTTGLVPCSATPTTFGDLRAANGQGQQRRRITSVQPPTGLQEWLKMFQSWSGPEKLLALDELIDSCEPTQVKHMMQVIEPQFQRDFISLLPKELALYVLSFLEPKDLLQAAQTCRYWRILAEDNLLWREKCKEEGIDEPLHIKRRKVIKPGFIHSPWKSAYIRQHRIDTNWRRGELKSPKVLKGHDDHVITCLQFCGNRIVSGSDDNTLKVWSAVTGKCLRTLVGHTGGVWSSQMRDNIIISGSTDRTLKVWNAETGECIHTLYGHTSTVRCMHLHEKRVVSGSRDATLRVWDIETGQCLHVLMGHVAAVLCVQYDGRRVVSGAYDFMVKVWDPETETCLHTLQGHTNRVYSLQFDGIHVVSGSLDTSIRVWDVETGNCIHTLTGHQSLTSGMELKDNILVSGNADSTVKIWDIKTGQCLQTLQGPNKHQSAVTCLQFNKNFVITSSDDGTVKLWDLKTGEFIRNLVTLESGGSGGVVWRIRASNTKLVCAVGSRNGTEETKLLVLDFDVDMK
T1 sequence (P63208 2-163 partner): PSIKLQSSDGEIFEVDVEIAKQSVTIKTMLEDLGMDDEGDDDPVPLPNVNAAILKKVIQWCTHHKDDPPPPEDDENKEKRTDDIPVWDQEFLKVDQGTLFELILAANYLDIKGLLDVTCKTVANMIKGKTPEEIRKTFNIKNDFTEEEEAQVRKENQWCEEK
T2 sequence (Q969H0 64-707 R505L): as the sequence (Q969H0 64-707 R505L) above
T2 sequence (P63208 2-163 partner): as the sequence (P63208 2-163 partner) above

SMILES	EC50 (FBW7^ARG+pCycE; [1]) [µM]	Emax (FBW7^ARG+pCycE) [%]	EC50 (FBW7^ARG+pCycE; [2]) [µM]	activation at 26.1 µM (FBW7^ARG+pCycE; [3]) [%]	activation at 26.1 µM (FBW7^ARG+pCycE; [4]) [%]	EC50 (FBW7^ARG (RLFBW7) alone; [5]) [µM]	Emax (FBW7^ARG (RLFBW7) alone) [%]	EC50 (FBW7^ARG (RLFBW7) alone; [6]) [µM]	CyCEP ACT DCSRUN2 Averaged Max % Response (pCycE alone) [%]	EC50 (pCycE alone) [µM]	RLFBW7 ACT DCSRUN1 Hill Slope (FBW7^ARG (RLFBW7) alone)
Cc1ncn(-c2ccc(Nc3cc(-c4nocc4-c4ccccn4)ccn3)cc2)n1.O=C(O)C(F)(F)F [SR-00000006872-1]	2.6	12.1	> 65.3	4.15 ± 0.5	2.76	83.6	2.08	> 65.3	0.34	> 65.3	
COc1ccccc1-c1ccc(N2CCN(C(=O)COc3ccccc3)CC2)nn1 [SR-01000920770-1]	18	23.1	> 65.3	5.69 ± 0.17	7.62	0.0059	-0.274	> 65.3	0.32	> 65.3	
CCCCCCCC(=O)Nc1ccc(C(=O)Nc2ccc(O)c(C(=O)O)c2)cc1 [SR-01000507444-1]	5.7	13.7	> 49.3	4.18 ± 0.65	4.07		1.89	> 49.3	2.05	> 49.3	
CSc1ccccc1C(=O)Nc1nc2nc(C)cc(C)c2s1 [SR-01000917298-1]	53.6	23.5	> 65.3	3.94 ± 9.71	8.85	28.6	83	29.9	0.18	> 65.3	6.64
CCOC(=O)c1sc2ncn(CC(=O)NCCC3=CCCCC3)c(=O)c2c1C [SR-01000119175-1]		10.3		2.53 ± 0.13	2.18		0.7		0.13	> 65.3	
CCN(CC)c1ccc2cc(-c3ccccn3)c(=O)oc2c1 [SR-01000033354-1]	24.5	21.9	> 70.9	3.34 ± 0.7	2.67	19.4	12	> 70.9	0.43	> 70.9	
COc1ccc(C2CC(=O)C3=C(C2)NC(C)=C(C(=O)OC(C)C)C3c2ccccc2OC(C)C)cc1 (stereo not shown) [SR-01000422384-1]	14.3	9.7	> 42.9	6.29 ± 0.67	2.42	14.5	1.86	> 42.9	0.09	> 42.9	
Cc1cc(OCC(=O)Nc2ccc3oc(-c4ccccc4Br)nc3c2)cc(C)c1Cl [SR-01000421466-1]	0.0412	8.15	> 43.2	3.2 ± 0.75	2.01		0.32	> 43.2	0.02	> 43.2	
CCN(Cc1ccccc1)C(=O)c1cc2c(=O)n3cccc(C)c3nc2n1C [SR-01000140943-1]	21.5	8.52	> 65.3	2.95 ± 0.31	3.93	4.1	1.56	> 65.3	0.79	> 65.3	
O=C(Cc1ccc(Br)cc1)N1CCC(c2nc(O)c3cnccc3n2)C1.O=C(O)C(F)(F)F (stereo not shown) [SR-00000005455-1]	30.2	24.7	> 65.3	4.65 ± 0.38	2.32	0.0129	0.43	> 65.3	0.31	> 65.3	
CCS(=O)(=O)NCC(c1cccs1)S(=O)(=O)c1ccc(C)cc1 (stereo not shown) [SR-01000023127-1]	7.6	14.7	> 66.4	2.18 ± 0.61	3.19	0.0177	0.24	> 66.4	0.21	> 66.4	
COc1ccc(N2C(=O)CC(SCCN)C2=O)cc1 (stereo not shown) [SR-01000428800-1]	15.1	9.73	> 87.4	11.2 ± 1.65	2.51	0.0102	1.48	> 87.4	2.47	> 87.4	
CCCOc1ccc(C2C(C(=O)OC)=CN(CCOC)C=C2C(=O)OC)cc1 [SR-01000259436-1]	21.9	10.7	> 65.3	2.9 ± 0.27	2.13	19	5.19	> 65.3	0.31	> 65.3	
COc1cccc(/C=N/c2ccc3[nH]ncc3c2)c1O [SR-01000359514-1]	21.1	15.2	> 65.3	2.38 ± 0.5	6.3	23.7	0.39	> 65.3	0.13	> 65.3	
Cc1ccc(-c2nnc(N3CCN(C(=O)c4ccco4)CC3)c3ccccc23)cc1 [SR-01000505133-1]	19.6	16.5	> 54	2.31 ± 0.38	2.28	0.008	2.77	> 54	1.77	> 54	
